Target: T1, wildtype HIV-1 protease (Human immunodeficiency virus type 1 group M subtype B, UniProt P04585)
T1 construct: preincubated with the HIV-1 protease (wild type) enzyme in assay buffer; made in house; host or cells: Escherichia coli
Test: Assay for Inhibition of Microbial Expressed HIV Protease (Pepcleav)
Format: biochemical
Method: Assay for Inhibition of Microbial Expressed HIV Protease (“Pepcleav”)
Studies of the inhibition of the wildtype HIV-1 protease (which was expressed in Escherichia coli) were carried out with a peptide substrate [Val-Ser-Gln-Asn-(βnaphthyl)Ala-Pro-Ile-Val (SEQ ID NO: 1)]. The inhibitor was first preincubated with the HIV-1 protease (wild type) enzyme in assay buffer (50 mM sodium acetate, pH 5.5, 100 mM NaCl, and 0.1% BSA) for 30 minutes at room temperature. Substrate was added to 400 micromolar in a total volume of 20 microliters containing 20 picomolar HIV-1 protease (final) and the reaction was incubated for 1 hour at 30° C. The reaction was quenched with the addition of formic acid and indinavir to 0.012% and 150 nM final concentrations, respectively. The product formation was determined after separation of product and substrate on a Zorbax Eclipse XDB-C18 column connected to an API 4000 mass spectrometer (Applied Biosystems) with multiple reaction monitoring (transitions were 644.5/428.9 and 615.4/422.2 (M1/M3) for product and indinavir respectively). The extent of inhibition of the reaction was determined from the peak area of the products. Analysis of the products, independently synthesized, provided quantitation standards and confirmation of the product composition.

Row | SMILES | IC50 [nM]
1 | COC(=O)N[C@H](C(=O)Nc1ccccc1CC[C@@H]1CN[C@H](c2nc3c(C)ccnc3[nH]2)CO1)C(c1ccccc1)c1ccccc1 [Example 23, methyl N-[(1S)-1-benzhydryl-2-[[2-[2-[(2R,5R)-5-(7-methyl-3H-imidazo[4,5-b]pyridin-2-yl)morpholin-2-yl]ethyl]phenyl]amino]-2-oxo-ethyl]carbamate] | 3.13
2 | COC(=O)N[C@H](C(=O)Nc1ccccc1CC[C@@H]1CN[C@H](c2cn(C)c(=O)[nH]2)CO1)C(c1ccccc1)c1ccccc1 [Example 88] | 310
3 | COC(=O)N[C@H](C(=O)Nc1ccccc1CC[C@@H]1CN[C@H](c2cnnn2Cc2ccccc2)CO1)C(c1ccccc1)c1ccccc1 [Example 51, N-(2-{2-[(2R,5R)-5-(1-benzyl-1H-1,2,3-triazol-5-yl)morpholin-2-yl]ethyl}phenyl)-Nα-(methoxycarbonyl)-β-phenyl-L-phenylalaninamide] | 576
4 | COC(=O)N[C@H](C(=O)Nc1ccccc1CC[C@@H]1CN[C@H](c2cnc(-c3ccccc3)[nH]2)CO1)C(c1ccccc1)c1ccccc1 [Example 46, Nα-(methoxycarbonyl)-β-phenyl-N-(2-{2-[(2R,5R)-5-(2-phenyl-1H-imidazol-5-yl)morpholin-2-yl]ethyl}phenyl)-L-phenylalaninamide] | 841
5 | COC(=O)N[C@H](C(=O)Nc1ccccc1CC[C@@H]1CN[C@H](c2nnc(Cc3ccccc3)o2)CO1)C(c1ccccc1)c1ccccc1 [Example 78] | 62
6 | COC(=O)N[C@H](C(=O)Nc1ccccc1CC[C@@H]1CN[C@H](c2cc3cccnc3[nH]2)CO1)C(c1ccccc1)c1ccccc1 [Example 62, Nα-(methoxycarbonyl)-β-phenyl-N-(2-{2-[(2R,5R)-5-(1H-pyrrolo[2,3-b]pyridin-2-yl)morpholin-2-yl]ethyl}phenyl)-L-phenylalaninamide] | 156
7 | COC(=O)N[C@H](C(=O)Nc1ccccc1CC[C@@H]1CN[C@H](c2cc3c(Cl)cccc3[nH]2)CO1)C(c1ccccc1)c1ccccc1 [Example 60, N-(2-{2-[(2R,5R)-5-(4-chloro-1H-indol-2-yl)morpholin-2-yl]ethyl}phenyl)-Nα-(methoxycarbonyl)-β-phenyl-L-phenylalaninamide] | 88.6
8 | O=C(CCc1ccccc1Cl)Nc1cccc(F)c1CC[C@@H]1CN[C@H](c2nc3ccccc3[nH]2)CO1 [Example 99, N-(2-{2-[(2R,5R)-5-(1H-benzimidazol-2-yl)morpholin-2-yl]ethyl}-3-fluorophenyl)-3-(2-chlorophenyl) propanamide] | 11
9 | N[C@H](C(=O)Nc1cncc(F)c1CC[C@@H]1CN[C@H](c2nc3cc(C(=O)NCC(F)(F)F)ccc3[nH]2)CO1)C(c1ccccc1)c1ccccc1 [Example 101, N-(5-fluoro-4-{2-[(2R,5R)-5-{5-[(2,2,2-trifluoroethyl)carbamoyl]-1H-benzimidazol-2-yl}morpholin-2-yl]ethyl}pyridin-3-yl)-β-phenyl-L-phenylalaninamide] | 26
10 | COC(=O)N[C@H](C(=O)Nc1ccccc1CC[C@@H]1CN[C@H](c2nc3cc(Cl)c(Cl)cc3[nH]2)CO1)C(c1ccccc1)c1ccccc1 [Example 12] | 0.706
11 | COC(=O)N[C@H](C(=O)Nc1ccccc1CC[C@@H]1CN[C@H](c2nc3cccc(Br)c3[nH]2)CO1)C(c1ccccc1)c1ccccc1 [Example 14, methyl N-[(1S)-1-benzhydryl-2-[[2-[2-[(2R,5R)-5-(7-bromo-1H-benzimidazol-2-yl)morpholin-2-yl]ethyl]phenyl]amino]-2-oxo-ethyl]carbamate] | 0.592
12 | COC(=O)N[C@H](C(=O)Nc1ccccc1CC[C@@H]1CN[C@H](c2nc3cc(Cl)c(C)cc3[nH]2)CO1)C(c1ccccc1)c1ccccc1 [Example 22, methyl N-[(1S)-1-benzhydryl-2-[[2-[2-[(2R,5R)-5-(5-chloro-6-methyl-1H-benzimidazol-2-yl)morpholin-2-yl]ethyl]phenyl]amino]-2-oxo-ethyl]carbamate] | 1.93
13 | COC(=O)N[C@H](C(=O)Nc1ccccc1CC[C@@H]1CN[C@H](c2nc3ccc(Br)cc3[nH]2)CO1)C(c1ccccc1)c1ccccc1 [Example 11, methyl N-[(1S)-1-benzhydryl-2-[[2-[2-[(2R,5R)-5-(6-bromo-1H-benzimidazol-2-yl)morpholin-2-yl]ethyl]phenyl]amino]-2-oxo-ethyl]carbamate] | 0.411
14 | COC(=O)N[C@H](C(=O)Nc1ccccc1CC[C@@H]1CN[C@H](c2ncc[nH]2)CO1)C(c1ccccc1)c1ccccc1 [Example 86] | 1.8
15 | COC(=O)N[C@H](C(=O)Nc1ccccc1CC[C@@H]1CN[C@H](c2nc3ccc(C(F)(F)F)cc3[nH]2)CO1)C(c1ccccc1)c1ccccc1 [Example 8, methyl N-[(1S)-1-benzhydryl-2-oxo-2-[[2-[2-[(2R,5R)-5-[6-(trifluoromethyl)-1H-benzimidazol-2-yl]morpholin-2-yl]ethyl]phenyl]amino]ethyl]carbamate] | 0.504
16 | COC(=O)N[C@H](C(=O)Nc1ccccc1CC[C@@H]1CN[C@H](c2nc3ccc(S(C)(=O)=O)cc3[nH]2)CO1)C(c1ccccc1)c1ccccc1 [Example 7, methyl N-[(1S)-1-benzhydryl-2-[[2-[2-[(2R,5R)-5-(6-methylsulfonyl-1H-benzimidazol-2-yl)morpholin-2-yl]ethyl]phenyl]amino]-2-oxo-ethyl]carbamate] | 37.1
17 | COC(=O)N[C@H](C(=O)Nc1ccccc1CC[C@@H]1CN[C@H](c2nc3c(Cl)cc(C(F)(F)F)cc3[nH]2)CO1)C(c1ccccc1)c1ccccc1 [Example 26, methyl N-[(1S)-1-benzhydryl-2-[[2-[2-[(2R,5R)-5-[4-chloro-6-(trifluoromethyl)-1H-benzimidazol-2-yl]morpholin-2-yl]ethyl]phenyl]amino]-2-oxo-ethyl]carbamate] | 65.6
18 | COC(=O)N[C@H](C(=O)Nc1ccccc1CC[C@@H]1CN[C@H](c2nc3ccc(OC)cc3[nH]2)CO1)C(c1ccccc1)c1ccccc1 [Example 6, methyl N-[(1S)-1-benzhydryl-2-[[2-[2-[(2R,5R)-5-(6-methoxy-1H-benzimidazol-2-yl)morpholin-2-yl]ethyl]phenyl]amino]-2-oxo-ethyl]carbamate] | 0.334
19 | C#C[C@@H]1CO[C@H](CCc2ccccc2NC(=O)[C@@H](NC(=O)OC)C(c2ccccc2)c2ccccc2)CN1 [Example 49, N-(2-{2-[(2R,5R)-5-ethynylmorpholin-2-yl]ethyl}phenyl)-Nα-(methoxycarbonyl)-β-phenyl-L-phenylalaninamide] | 824
20 | COC(=O)N[C@H](C(=O)Nc1ccccc1CC[C@@H]1CN[C@H](C#N)CO1)C(c1ccccc1)c1ccccc1 [Example 37, methyl [(1S)-2-[(2-{2-[(2R,5R)-5-cyanomorpholin-2-yl]ethyl}phenyl)amino]-1-(diphenylmethyl)-2-oxoethyl]carbamate] | 246
21 | COC(=O)N[C@H](C(=O)Nc1cncc(F)c1CC[C@@H]1CN[C@H](c2nc3ccccc3[nH]2)CO1)C(c1ccc(F)cc1)c1ccc(F)cc1 [Example 72, N-(4-{2-[(2R,5R)-5-(1H-benzimidazol-2-yl)morpholin-2-yl]ethyl}-5-fluoropyridin-3-yl)-4-fluoro-β-(4-fluorophenyl)-Nα-(methoxycarbonyl)-L-phenylalaninamide] | 0.01
22 | COC(=O)N[C@H](C(=O)Nc1ccccc1CC[C@@H]1CN[C@H](c2cn(Cc3ccccc3)nn2)CO1)C(c1ccccc1)c1ccccc1 [Example 50, N-(2-{2-[(2R,5R)-5-(1-benzyl-1H-1,2,3-triazol-4-yl)morpholin-2-yl]ethyl}phenyl)-Nα-(methoxycarbonyl)-β-phenyl-L-phenylalaninamide] | 36.3
23 | O=C(C[C@H](c1ccccc1)c1ccc(F)cc1)Nc1cncc(F)c1CC[C@@H]1CN[C@H](c2nc3cc(F)c(F)cc3[nH]2)CO1 [Example 70, (3R)—N-(4-{2-[(2R,5R)-5-(5,6-difluoro-1H-benzimidazol-2-yl)morpholin-2-yl]ethyl}-5-fluoropyridin-3-yl)-3-(4-fluorophenyl)-3-phenylpropanamide] | 0.01
24 | COC(=O)N[C@H](C(=O)Nc1ccccc1CC[C@@H]1CN[C@H](c2nc3ccc(O)nc3[nH]2)CO1)C(c1ccccc1)c1ccccc1 [Example 89] | 150
25 | COC(=O)N[C@H](C(=O)Nc1ccccc1CC[C@@H]1CN[C@H](c2nnn[nH]2)CO1)C(c1ccccc1)c1ccccc1 [Example 38, Nα-(methoxycarbonyl)-β-phenyl-N-(2-{2-[(2R,5R)-5-(1H-tetrazol-5-yl)morpholin-2-yl]ethyl}phenyl)-L-phenylalaninamide] | 2
26 | COC(=O)N[C@H](C(=O)Nc1ccccc1CC[C@@H]1CN[C@H](c2cc3cc(C)ccc3[nH]2)CO1)C(c1ccccc1)c1ccccc1 [Example 54, Nα-(methoxycarbonyl)-N-(2-{2-[(2R,5R)-5-(5-methyl-1H-indol-2-yl)morpholin-2-yl]ethyl}phenyl)-β-phenyl-L-phenylalaninamide] | 143
27 | COC(=O)N[C@H](C(=O)Nc1ccccc1CC[C@@H]1CN[C@H](c2cc3cnccc3[nH]2)CO1)C(c1ccccc1)c1ccccc1 [Example 61, Nα-(methoxycarbonyl)-β-phenyl-N-(2-{2-[(2R,5R)-5-(1H-pyrrolo[3,2-c]pyridin-2-yl)morpholin-2-yl]ethyl}phenyl)-L-phenylalaninamide] | 550
28 | COC(=O)N[C@H](C(=O)Nc1ccccc1CC[C@@H]1CN[C@H](c2nc3cc(Cl)c(Cl)cc3[nH]2)CO1)C(c1ccccc1)c1ccccc1 [Example 85] | 0.4
